The source of these data is patent publication US20250223301A1, “KINASE INHIBITORS, PREPARATION METHODS AND USES THEREOF” (InventisBio Co., Ltd., priority 2022, published 2025).

The term IC50 denotes the concentration that gives 50% inhibition. A lower IC50 goes with greater potency in that assay.

In one test the target is DGKa (Homo sapiens (Human), UniProt P23743). The experiment in a line: biochemical.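 Further: biochemical DGK kinase assay, ADP-Glo luminescence from ADP made by phosphorylating 1,2-dioleoyl-sn-glycerol, 20 min compound preincubation then 40 min reaction at 25 °C, 1% DMSO control.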
Sequence of DGKa (P23743 whole entry): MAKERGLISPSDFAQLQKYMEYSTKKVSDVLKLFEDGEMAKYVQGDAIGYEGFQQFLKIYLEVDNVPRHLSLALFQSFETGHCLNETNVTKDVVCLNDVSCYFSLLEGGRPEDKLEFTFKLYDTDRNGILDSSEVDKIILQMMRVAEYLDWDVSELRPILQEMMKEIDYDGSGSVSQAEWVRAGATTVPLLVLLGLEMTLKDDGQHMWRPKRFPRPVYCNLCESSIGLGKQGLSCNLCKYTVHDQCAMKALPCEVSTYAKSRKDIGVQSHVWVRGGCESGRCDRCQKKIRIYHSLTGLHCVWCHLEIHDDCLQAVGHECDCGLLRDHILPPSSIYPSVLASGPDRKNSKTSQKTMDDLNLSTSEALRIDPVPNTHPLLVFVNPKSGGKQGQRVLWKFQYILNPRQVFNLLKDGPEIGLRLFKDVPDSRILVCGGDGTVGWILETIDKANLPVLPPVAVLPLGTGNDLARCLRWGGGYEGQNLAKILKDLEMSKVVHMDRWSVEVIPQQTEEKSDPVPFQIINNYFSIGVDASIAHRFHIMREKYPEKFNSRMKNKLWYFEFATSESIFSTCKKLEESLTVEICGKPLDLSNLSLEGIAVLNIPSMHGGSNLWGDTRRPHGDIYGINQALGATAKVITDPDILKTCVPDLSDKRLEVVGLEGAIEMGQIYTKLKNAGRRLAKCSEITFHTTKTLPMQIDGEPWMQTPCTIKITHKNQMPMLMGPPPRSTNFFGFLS
Another test has as its target DGKz (Homo sapiens (Human), UniProt Q13574). Kind of test: DGK ADP-Glo kinase assay (DGKz). It counts as biochemical. As to conditions: 5 nM DGKz, 15 uM ATP. The method, then:
Luminescence was recorded using an Tecan SPARK microplate reader.

Sequence of DGKz (Q13574 whole entry): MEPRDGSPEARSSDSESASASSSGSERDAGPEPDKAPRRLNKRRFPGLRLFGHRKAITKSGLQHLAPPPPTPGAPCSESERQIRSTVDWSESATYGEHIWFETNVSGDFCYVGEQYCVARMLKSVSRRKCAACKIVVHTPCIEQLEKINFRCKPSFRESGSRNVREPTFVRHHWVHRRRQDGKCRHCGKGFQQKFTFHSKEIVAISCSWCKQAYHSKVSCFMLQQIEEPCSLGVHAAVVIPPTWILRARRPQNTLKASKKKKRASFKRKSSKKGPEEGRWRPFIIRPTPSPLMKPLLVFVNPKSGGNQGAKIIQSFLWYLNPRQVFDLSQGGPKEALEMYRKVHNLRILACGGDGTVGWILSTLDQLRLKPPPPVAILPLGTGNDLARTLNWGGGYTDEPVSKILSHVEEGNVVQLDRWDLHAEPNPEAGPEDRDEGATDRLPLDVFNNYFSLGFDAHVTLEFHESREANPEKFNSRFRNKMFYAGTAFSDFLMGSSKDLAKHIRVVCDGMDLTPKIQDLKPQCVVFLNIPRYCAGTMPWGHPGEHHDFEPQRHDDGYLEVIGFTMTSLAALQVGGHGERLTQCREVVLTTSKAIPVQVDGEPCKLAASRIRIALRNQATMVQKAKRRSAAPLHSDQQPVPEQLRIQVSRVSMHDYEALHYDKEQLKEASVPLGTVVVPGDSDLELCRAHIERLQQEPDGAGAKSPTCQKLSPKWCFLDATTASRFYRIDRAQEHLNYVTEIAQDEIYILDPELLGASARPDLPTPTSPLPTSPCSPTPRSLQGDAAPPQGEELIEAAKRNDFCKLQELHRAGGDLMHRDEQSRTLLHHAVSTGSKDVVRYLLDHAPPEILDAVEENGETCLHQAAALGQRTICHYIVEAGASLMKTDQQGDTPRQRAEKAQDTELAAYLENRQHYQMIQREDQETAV

Regarding `CC[C@@H]1C[C@H](Oc2ccc(OC(F)(F)F)cc2)CCN1c1nc(=O)n(C)c2ccc(C#N)nc12` [Compound 16], the IC50 against DGKa came out at 0.926 µM; at DGKz, 0.058 µM.

Turning to `Cc1ccc2oc(C3CCN(c4nc(=O)n(C)c5cc(O[C@H]6CCOC6)c(Cl)cc45)CC3)nc2c1` [Compound 33], the results for the IC50 at DGKa and on DGKz were 0.002 µM and 0.06 µM, respectively.

Regarding `CC[C@H]1CN([C@@H](CC)c2ccc(C(F)(F)F)nc2)[C@H](CC)CN1c1nc2nncn2c2ccc(C#N)nc12` (stereo in doubt) [Compound 111], the IC50 at DGKa was 0.007 µM; on DGKz, 0.018 µM.

Take `CC[C@@H]1CN(c2nc3nncn3c3ccc(C#N)nc23)[C@@H](C)CN1[C@@H](CC)c1ccc(C(F)(F)F)cc1` (stereo in doubt) [Compound 81]: the IC50 was determined as 0.006 µM against DGKa and 0.016 µM on DGKz.

With `CC[C@@H]1C[C@@]2(CCN1c1nc(=O)n(C)c3ccc(C#N)nc13)CC(c1ccc(OC(F)(F)F)cc1)=NO2` (single isomer, unassigned) [Compound 75], the IC50 at DGKa worked out at 0.253 µM; at DGKz, 0.66 µM.

For `CC[C@@H]1CN(c2nc3nncn3c3ccc(C#N)nc23)[C@@H](C)CN1[C@H](CC)c1ccc(C(F)(F)F)cc1` (stereo in doubt) [Compound 82], the IC50 against DGKa amounted to 0.002 µM; on DGKz, 0.454 µM.

On to `CC[C@@H]1CN(c2nc(=O)n(C)c3ccc(C#N)nc23)[C@@H](C)CN1[C@H](CC)c1ccc(S(F)(F)(F)(F)F)cc1` (stereo in doubt) [Compound 61], for which the IC50 was 0.128 µM against DGKa and 0.18 µM against DGKz.

Turning to `CC[C@H]1C[C@@H](c2nc3cc(C)ccc3o2)CCN1c1nc(=O)n(C)c2cc(O[C@H]3CCOC3)c(Cl)cc12` (stereo in doubt) [Compound 93], the 50% inhibitory concentration (IC50) amounted to 0.012 µM against DGKa and 0.13 µM at DGKz.

For `CC[C@H]1CN([C@H](CC)c2ccc(SC(F)(F)F)cc2)[C@H](CC)CN1c1nc2nncn2c2ccc(C#N)nc12` (stereo in doubt) [Compound 69], the IC50 against DGKa amounted to 0.01 µM; against DGKz, 0.346 µM.

As to `CC[C@H]1CN([C@H](CC)c2cccc(C(F)(F)F)c2)[C@H](CC)CN1c1nc2nncn2c2ccc(C#N)nc12` (stereo in doubt) [Compound 106], the results for the IC50 against DGKa and at DGKz were 0.024 µM and 0.555 µM, respectively.

Regarding `CC[C@@H]1CN(c2nc3nncn3c3ccc(C#N)nc23)[C@@H](CC)CN1C(=O)Cc1ccc(C(F)(F)F)cc1` [Compound 85], the IC50 on DGKa was 0.018 µM; on DGKz it was 0.77 µM.

With `CC[C@H]1CN([C@H](c2ccc(SC(F)(F)F)cc2)c2nc(C3CC3)cs2)[C@H](CC)CN1c1nc(=O)n(C)c2ccc(C#N)nc12` [Compound 57], the IC50 amounted to 0.024 µM against DGKa and 0.607 µM against DGKz.

With `CC[C@H]1CN([C@H](CC)c2ccc(S(F)(F)(F)(F)F)cc2)[C@H](CC)CN1c1nc2nncn2c2ccc(C#N)nc12` [Compound 87], the IC50 against DGKa amounted to 0.002 µM; at DGKz, 0.093 µM.

Turning to `Cc1ccc2oc(C3CCN(c4nc(=O)n(C)c5cc(O[C@@H]6CCOC6)c(Cl)cc45)CC3)nc2c1` [Compound 32], the IC50 was 0.009 µM on DGKa and over 10 µM against DGKz.

For `CC[C@@H]1CN(c2nc3nncn3c3ccc(C#N)nc23)[C@@H](C)CN1[C@H](CC)c1ccc(S(F)(F)(F)(F)F)cc1` (stereo in doubt) [Compound 90], the IC50 on DGKa amounted to 0.01 µM; against DGKz, 0.404 µM.

`CC[C@H]1CN([C@H](CC)c2ccc(S(F)(F)(F)(F)F)cc2)[C@H](CC)CN1c1nc(=O)n2c3c(cc(C#N)nc13)OCC2` (stereo in doubt) [Compound 79]: the IC50 against DGKa was 0.111 µM; at DGKz, 0.333 µM.

As to `CC[C@H]1CN([C@@H](C)c2ccc(S(F)(F)(F)(F)F)cc2)[C@H](CC)CN1c1nc(=O)n(C)c2ccc(C#N)nc12` (stereo in doubt) [Compound 62], the IC50 is 0.035 µM at DGKa and 0.132 µM at DGKz.

Consider `CC[C@@H]1CN(c2nc(=O)n(C)c3ccc(C#N)nc23)[C@@H](C)CN1[C@H](c1ccc(F)cc1)c1ccc(SC(F)(F)F)cn1` [Compound 73], for which the figures for the IC50 on DGKa and on DGKz were 0.015 µM and 0.058 µM, respectively.

As to `CC[C@@H]1CN2c3c(c(=O)n(C)c4ccc(C#N)nc34)OC[C@@H]2CN1[C@H](CC)c1ccc(SC(F)(F)F)cc1` [Compound 124], the results for the IC50 against DGKa and against DGKz were 0.006 µM and 0.114 µM, respectively.

As for `CC[C@H]1CN([C@@H](CC)c2ccc(OC(F)(F)F)cc2)[C@H](CC)CN1c1nc2nncn2c2ccc(C#N)nc12` (single isomer, unassigned) [Compound 100], the results for the IC50 on DGKa and against DGKz were 0.001 µM and 0.03 µM, respectively.

With `CC[C@H]1C[C@]2(CCN1c1nc(=O)n(C)c3ccc(C#N)nc13)CC(c1ccc(OC(F)(F)F)cc1)=NO2` (single isomer, unassigned) [Compound 74], the IC50 on DGKa is 0.01 µM; on DGKz, 1.57 µM.

Turning to `CC[C@H]1CN([C@@H](c2ccc(SC(F)(F)F)cc2)c2nc(C3CC3)cs2)[C@H](CC)CN1c1nc(=O)n(C)c2ccc(C#N)nc12` [Compound 58], the IC50 on DGKa turned out to be 0.009 µM; on DGKz it was 0.367 µM.

As to `N#Cc1cc2c3c(n1)c(N1CCC4(CC1)CC(c1ccc(OC(F)(F)F)cc1)=NO4)nc(=O)n3CCO2` [Compound 59], the IC50 against DGKa is 0.028 µM; on DGKz, 0.162 µM.

As for `CC[C@H]1CN([C@H](c2ccc(S(F)(F)(F)(F)F)cc2)C2CC2)[C@H](CC)CN1c1nc(=O)n(C)c2ccc(C#N)nc12` (stereo in doubt) [Compound 117], the values for the IC50 on DGKa and against DGKz were 0.018 µM and 0.2 µM, respectively.

`CC[C@H]1CN([C@@H](CC)c2ccc(S(F)(F)(F)(F)F)cc2)[C@H](CC)CN1c1nc(=O)n2c3c(cc(C#N)nc13)OCC2` (stereo in doubt) [Compound 83]: the IC50 against DGKa was found to be 0.023 µM; against DGKz, 0.124 µM.

Consider `CC[C@H]1C[C@@H](c2nc3cc(C)ccc3o2)CCN1c1nc(=O)n(C)c2cc(O[C@@H]3CCOC3)c(Cl)cc12` (single isomer, unassigned) [Compound 94], for which the IC50 against DGKa was determined as 0.14 µM; against DGKz it was 1.3 µM.

As for `CC[C@H]1CN([C@@H](CC)c2cccc(C(F)(F)F)c2)[C@H](CC)CN1c1nc2nncn2c2ccc(C#N)nc12` (stereo in doubt) [Compound 105], the IC50 at DGKa was determined as 0.004 µM; at DGKz it was 0.029 µM.

Regarding `CC[C@H]1CN([C@@H](C)c2ccc(SC(F)(F)F)cc2)[C@H](CC)CN1c1nc2nncn2c2ccc(C#N)nc12` (stereo in doubt) [Compound 51], the IC50 against DGKa came out at 0.058 µM; against DGKz, 0.05 µM.

Consider `CC[C@@H]1C[C@H](c2nc3cc(C)ccc3o2)CCN1c1nc(=O)n(C)c2cc(O[C@@H]3CCOC3)c(Cl)cc12` [Compound 92], for which the IC50 at DGKa amounted to 0.227 µM; on DGKz it was 0.006 µM.

In the case of `CC[C@@H]1CN(c2nc3nncn3c3ccc(C#N)nc23)[C@@H](C)CN1[C@@H](CC)c1ccc(S(F)(F)(F)(F)F)cc1` (stereo in doubt) [Compound 80], the figures for the IC50 at DGKa and against DGKz were 0.012 µM and 0.027 µM, respectively.

For the molecule `CC[C@H]1CN([C@@H](CC)c2ccc(SC(F)(F)F)cc2)[C@H](CC)CN1c1nc2nncn2c2ccc(C#N)nc12` (stereo in doubt) [Compound 68], the IC50 amounted to 0.005 µM against DGKa and 0.103 µM against DGKz.

Consider `CC[C@@H]1CN(c2nc3nncn3c3ccc(C#N)nc23)[C@@H](C)CN1[C@H](CC)c1ccc(SC(F)(F)F)cc1` (stereo in doubt) [Compound 71], for which the IC50 came to 0.021 µM at DGKa and 0.236 µM against DGKz.

With `CC[C@@H]1C[C@@H](c2nc3cc(C)ccc3o2)CCN1c1nc(=O)n(C)c2cc(OC3CCOC3)c(Cl)cc12` (stereo in doubt) [Compound 96], the IC50 on DGKa amounted to 0.004 µM; against DGKz, 2.82 µM.

For `CC[C@@H]1CN(c2nc(=O)n(C)c3ccc(C#N)nc23)[C@@H](C)CN1C(c1ccc(S(F)(F)(F)(F)F)cc1)c1nc(C2CC2)no1` (some centres unmarked) [Compound 65], the results for the IC50 against DGKa and at DGKz were 0.014 µM and 0.059 µM, respectively.

Take `Cn1c(=O)nc(N2CCCc3c(C#CC4CC4)cccc32)c2nc(C#N)ccc21` [Compound 39]: the IC50 against DGKa came out at 0.001 µM; at DGKz, 2.05 µM.

With `CC[C@H]1CN([C@H](CC)c2ccc(C(F)(F)F)nc2)[C@H](CC)CN1c1nc2nncn2c2ccc(C#N)nc12` (stereo in doubt) [Compound 112], the IC50 is 0.011 µM against DGKa and 0.183 µM against DGKz.

Turning to `CC[C@H]1CN([C@H](c2ccc(SC(F)(F)F)cc2)c2nc(C3CC3)no2)[C@H](CC)CN1c1nc(=O)n(C)c2ccc(C#N)nc12` (stereo in doubt) [Compound 70], the IC50 against DGKa was determined as 0.003 µM; on DGKz, 0.053 µM.

For `CC[C@H]1C[C@H](c2nc3cc(C)ccc3o2)CCN1c1nc(=O)n(C)c2cc(OC3CCOC3)c(Cl)cc12` (single isomer, unassigned) [Compound 97], the values for the IC50 against DGKa and against DGKz were 0.005 µM and 0.006 µM, respectively.

For the molecule `CC[C@H]1CN([C@H](C)c2ccc(SC(F)(F)F)cc2)[C@H](CC)CN1c1nc2nncn2c2ccc(C#N)nc12` (stereo in doubt) [Compound 52], the half-maximal inhibitory concentration (IC50) stood at 0.005 µM against DGKa and 0.499 µM at DGKz.

For the molecule `CC[C@H]1CN([C@H](CC)c2ccc(S(F)(F)(F)(F)F)cc2)[C@H](CC)CN1c1nc(=O)n(C)c2ccc(C#N)nc12` [Compound 29], the IC50 against DGKa is 0.014 µM; on DGKz it was 0.055 µM.

On to `CC[C@@H]1C[C@H](c2nc3cc(C)ccc3o2)CCN1c1nc(=O)n(C)c2cc(O[C@H]3CCOC3)c(Cl)cc12` [Compound 91], for which the IC50 at DGKa stood at 0.029 µM; on DGKz it was 6.06 µM.

`CC[C@H]1CN([C@H](CC)c2cccc(S(F)(F)(F)(F)F)c2)[C@H](CC)CN1c1nc(=O)n(C)c2ccc(C#N)nc12` (stereo in doubt) [Compound 56]: the IC50 against DGKa amounted to 0.415 µM; on DGKz it was 0.131 µM.

For the molecule `CC[C@H]1CN([C@H](C)c2ccc(S(F)(F)(F)(F)F)cc2)[C@H](CC)CN1c1nc(=O)n(C)c2ccc(C#N)nc12` (stereo in doubt) [Compound 63], the IC50 against DGKa is 0.016 µM; against DGKz, 0.639 µM.
